# Laboratory results as given in PMC11345836 (Journal of Medicinal Chemistry, 2024).
# Read-outs that look alike come from different tables or passages of the source.
# Tests used:
# [1] = Solubility of solid forms; type: physicochemical
# [2] = cited from earlier work
# [3] = cited from earlier work; remark: listed apart in the source
# [4] = cited from earlier work; remark: listed apart in the source
# [5] = cited from earlier work; remark: listed apart in the source
# [6] = cited from earlier work; remark: listed apart in the source
# [7] = 0.3–10 μM; cited from earlier work
# [8] = 0.3–10 μM; cited from earlier work; remark: listed apart in the source
# [9] = 0.3–10 μM; cited from earlier work; remark: listed apart in the source
# [10] = 2–200 μM; cited from earlier work
# [11] = NMR EXSY rotamer exchange kinetics; conditions: for Rotamer exchange in EXSY: 300 ms mixing time at 298 K; for Torsion Rotation t1/2: extrapolated to 298 K
# [12] = rat, p.o. 10 mg/kg, fed
# [13] = Rat liver microsome stability; conditions: for microsomal CLint: rat, microsomes; for predicted hepatic clearance, rat: scaled from rat liver microsomes
# Shake-flask LogD = type: physicochemical
smiles,measurement,setting,value
"CC(C)(C)[C@H](NC(=O)C(F)(F)F)C(=O)N1C[C@H]2[C@@H]([C@H]1C(=O)N[C@H](C#N)C[C@@H]1CCNC1=O)C2(C)C [Compound 1, nirmatrelvir]",solubility,[1]; Form: Anhydrous,1200 µg/mL
same,solubility,[1]; Form: MTBE,7210 µg/mL
same,"CLint,app, substrate depletion in HLM",[2],28.8 µL/min/mg
same,"predicted hepatic clearance, human",[2]; from substrate depletion in HLM,6.3 mL/min/kg
same,"observed CLp, rats",[3],22.7 mL/min/kg
same,"observed CLp, monkeys",[4],15.8 mL/min/kg
same,"predicted hepatic clearance, rats",[5],5.8 mL/min/kg
same,"predicted hepatic clearance, monkeys",[6],25 mL/min/kg
same,"fu,p rat plasma",[7],0.47–0.49
same,"fu,p monkey plasma",[8],0.39–0.50
same,"fu,p human plasma",[9],0.30–0.33
same,"fu,p dog plasma",[10],0.024–0.69
same,Energy of Rotation,[11]; Form: Anhydrous,20.4 kcal/mol
same,Rotamer exchange in EXSY,[11]; Form: Anhydrous,No
same,Torsion Rotation t1/2,[11]; Form: Anhydrous,10.54 min
same,Energy of Rotation,[11]; Form: MTBE,20.2 kcal/mol
same,Rotamer exchange in EXSY,[11]; Form: MTBE,No
same,Torsion Rotation t1/2,[11]; Form: MTBE,10.99 min
"CC(C)(C)[C@H](NC(=O)C(F)(F)F)C(=O)N1C[C@H](OC(F)F)C[C@H]1C(=O)N[C@H](C#N)C[C@@H]1CCNC1=O [Compound 6, (2S,4R)-N-((S)-1-Cyano-2-((S)-2-oxopyrrolidin-3-yl)ethyl)-4-(difluoromethoxy)-1-((S)-3,3-dimethyl-2-(2,2,2-trifluoroacetamido)butanoyl)pyrrolidine-2-carboxamide]",Fa × Fg,[12]; 50% ASD,"7.2 (7.3, 6.9) %"
same,Oral F,[12]; 50% ASD,"4.2 (4.3, 4.1) %"
same,Fa × Fg,"[12]; crystalline, suspension","20.2 (20.0, 20.4) %"
same,microsomal CLint,[13],< 5.8 µL/min/mg
same,"predicted hepatic clearance, rat",[13],< 11 mL/min/kg
"COC(=O)N[C@H](C(=O)N1C[C@H](C(F)(F)F)C[C@H]1C(=O)N[C@H](C#N)C[C@@H]1CCCNC1=O)C(C)C [Compound 12, Methyl ((S)-1-((2S,4R)-2-(((S)-1-cyano-2-((S)-2-oxopiperidin-3-yl)ethyl)carbamoyl)-4-(trifluoromethyl)pyrrolidin-1-yl)-3-methyl-1-oxobutan-2-yl)carbamate]",Fa × Fg,[12]; 50% ASD,"15.8 (17.1, 14.5) %"
same,Oral F,[12]; 50% ASD,"8.1 (8.8, 7.5) %"
same,Fa × Fg,"[12]; amorphous, solution","14.7 (12.3, 17.6) %"
same,Oral F,"[12]; amorphous, solution","7.7 (6.3,9.0) %"
same,microsomal CLint,[13],< 5.8 µL/min/mg
same,"predicted hepatic clearance, rat",[13],< 11 mL/min/kg
Cc1cnc(C(=O)N[C@H]2CCCCC/C=C\[C@@H]3C[C@@]3(C(=O)NS(=O)(=O)C3CC3)NC(=O)[C@@H]3C[C@@H](Oc4nc5ccccc5c5ccccc45)CN3C2=O)cn1 [paritaprevir],logD,Shake-flask LogD,3.1
"COC(=O)N[C@H](C(=O)N1C[C@H](OC(F)(F)F)C[C@H]1C(=O)N[C@H](C#N)C[C@@H]1CCNC1=O)C(C)(C)C [Compound 5, Methyl ((S)-1-((2S,4R)-2-(((S)-1-cyano-2-((S)-2-oxopyrrolidin-3-yl)ethyl)carbamoyl)-4-(trifluoromethoxy)pyrrolidin-1-yl)-3,3-dimethyl-1-oxobutan-2-yl)carbamate]",Fa × Fg,"[12]; amorphous, solution","12.2 (11.4, 13.2) %"
same,Oral F,"[12]; amorphous, solution","8.6 (8.0, 9.2) %"
same,microsomal CLint,[13],< 5.8 µL/min/mg
same,"predicted hepatic clearance, rat",[13],< 11 mL/min/kg
Cc1cccc(C)c1OCC(=O)N[C@@H](Cc1ccccc1)[C@@H](O)C[C@H](Cc1ccccc1)NC(=O)[C@H](C(C)C)N1CCCNC1=O [lopinavir],logD,Shake-flask LogD,3.8
